Key:
C57/B6 female mice = test: Auditory brainstem response (ABR) assay, wave I amplitude; assay type: in vivo; settings: 1 mg/kg, 24 h post-treatment vs baseline (5-6 days pre-treatment), p<0.01, n=3
Protocol: The ABR amplitudes were analyzed at baseline (5-6 days pre-treatment) and 24 h post-treatment of vehicle (FIG. 2A and FIG. 2B) or 1 mg/kg of the psychoplastogen psilocin (FIG. 2C and FIG. 2D) at 8 and 16 kHz. Data are presented as mean±SEM. […] N=3 8-week old C57/B6 female mice per condition.
Auditory brainstem responses (ABRs) were recorded at baseline (5-6 days prior to treatment) and 24 h post treatment with psilocin (1 mg/kg). Mice were anesthetized via i.p. injections of ketamine (90 mg/kg) and xylazine (20 mg/kg). Subcutaneous electrodes were placed behind the right pinna (inverting) and vertex (active). A ground electrode was placed in the left leg of the mouse. Stimuli were 5-ms tone pips (2 ms cos2 rise-fall) delivered at 21/s with alternating stimulus polarity. Recorded electrical responses were filtered (300 Hz to 3 kHz) and averaged using BioSig software (TDT). The sound intensity level was decreased in 5 dB increments from 90 dB SPL-20 dB SPL. At each sound level 512 responses were averaged.
Wave I amplitudes were measured from the estimated baseline prior to the response to the peak of wave I in μV. ABR wave I amplitudes were analyzed at baseline (5-6 days pre-treatment) and 24 h post-treatment of psilocin (1 mg/kg). Data analyses and statistics were performed using Prism version 9.4 (GraphPad) and presented as mean±SEM. […]

[1] = test system: inner hair cell ribbon synapses (organ of Corti); test: Inner hair cell ribbon synapse density 24 h after psilocin treatment; assay type: in vivo, mice; settings: 1 mg/kg, 24 h after treatment, mean±SEM
Protocol: C57/B6 female mice, aged 8-weeks-old were treated with psilocin (1 mg/kg) (n=3) and Vehicle (0.9% saline) (n=2). […] Synapse density increase was not significant in the 8 kHz region (Vehicle: 16.50±3.826, psilocin: 17.79±3.826, P=0.5554). For each animal, 17-22 inner hair cells were quantified per frequency (8 kHz and 16 kHz regions of the organ of Corti). Data are presented as mean±SEM.*p<0.05.
8-week old C57/B6 mice were injected with 1 mg/kg psilocin or vehicle control (0).9% saline). 24 h later, mice were euthanized then inner ear tissues were collected for immunofluorescence. Isolated cochlea were punched into oval and round windows using a syringe needle and rinsed/fixed with 4% paraformaldehyde in 1×cold PBS. Then, cochlea were further fixed in 4% paraformaldehyde in 1×cold PBS for additional 2 hours at 4C0. Following fixation, samples were rinsed 3×20 min in PBS and dissected under a stereomicroscope to the three turns: apical, middle and basal. Tissues were permeabilized in PBS+0.25% Triton X-100 solution for 10 min at room temperature on a rocking platform; blocked with 10% goat serum and 25 mM glycine for 1 h at RT. […]

CN(C)CCc1c[nH]c2cccc(O)c12 [psilocin]
ABR wave I amplitude, change from baseline (C57/B6 female mice; 8 kHz): significantly increased | ABR wave I amplitude, change from baseline (C57/B6 female mice; 16 kHz): significantly increased | inner hair cell ribbon synapse density ([1]; 8 kHz region, not significant vs vehicle 16.50±3.826, P=0.5554): 17.79±3.826 | inner hair cell ribbon synapse density ([1]; 16 kHz region, significant vs vehicle 16±3.826, P=0.0169): 23.27±3.826
